Test results published in patent US20260048022A1, “ENDOTHELIAL DAMAGE AND NANOPARTICLE TARGETING: COMPOSITIONS, PROCESSES, USES” (Nanoprobes, Inc., priority 2022, published 2026).
Read-outs that look alike come from different tables or passages of the source.

Tests used:
[1] = test system: advanced non-squamous non-small-cell lung cancer; conditions: Phase II, with carboplatin, paclitaxel, and bevacizumab; cited from earlier work
[2] = test system: DNA; test: Nanoparticle targeting of DNA; type: binding; conditions: DNA binder incorporated into nanoparticles
Procedure: (§1) 0.2 mg of acridine yellow G or 0.2 mg of propidium iodide were dissolved in DMSO by heating twice at 80° C. for 2 min. 15 mg albumin was dissolved in 0.4 mL of PBS. While sonicating the albumin solution in an ice bath, the acridine or propidium solutions were slowly over about 10-20 sec injected at the sonicator tip. Sonication was continued for another minute. Clear colored solutions were obtained. Both were filtered through a 0.45 μm filter, all passing through. However, if albumin was not used, the solution containing acridine all was retained by the filter, whereas the propidium solution passed through. Both were purified with 50 kD Amicon centrifugal filters with PBS washing.
(§2) 20 mg of albumin was dissolved in 0.4 mL water and mixed with 0.5 mg of Dox making a clear colored solution. Under sonication and in an ice-water bath, 80 ul of 0.1 M NaOH was slowly injected near the sonicator tip. Next, 10 ul of 8% glutaraldehyde (in water) was added with an additional 5 minutes of sonication producing a clear solution. After 30 min, 30 ul of a 3 M solution of ethanolamine hydrochloride was added. After 30 min, the construct was purified on a 50 kDa centrifugal filter. […] After resuspension of the retentate in PBS the size of the nanoparticles was measured to be 117 nm by dynamic light scattering.

[3] = Payload retention / incorporation in protein nanoparticles; type: physicochemical; conditions: PBS washing
Procedure: as §1
as §2, with “scattering. […]” for “scattering.”

[4] = test system: tumors; test: Tumor treatment, variation of fibrinogen, drug and VDA amounts; type: in vivo
Procedure: One of the components, fibrinogen, was varied from 10 to 150 mg/kg.
In a preferred embodiment, 60 mg PTX/kg and 350 mg fibrinogen/kg are formed into nanoparticles 110-180 nm or 110 to 350 nm in size. Another discovery process requiring extensive experimentation was to find the type of fibrinogen that worked well. […] Various forms and fractions were tested to find a preferable one for tumor targeting.

[5] = test system: tumors; conditions: Pedley et al, 1996; cited from earlier work
[6] = Phase III trials; cited from earlier work
[7] = free drug, literature, cited from earlier work

COc1ccc(/C=C\c2cc(OC)c(OC)c(OC)c2)cc1OP(=O)(O)O.NC(CO)(CO)CO [CA4P, fosbretabulin tromethamine]
patient benefit [1]: little patient benefit

Cc1cc2cc3cc(C)c(N)cc3nc2cc1N [acridine yellow G]
targeting of necroses / free DNA when included in a nanoparticle [2]: found to target the nanoparticles to free DNA | retention with albumin on 50 kD Amicon centrifugal filters (stable complex) [3]: remained in the retentate

Cc1ccc2c(=O)c3cccc(CC(=O)O)c3oc2c1C [DMXAA]
dose leading to excessive toxicity (mouse, in vivo): > 20 mg/kg | dose close to optimal ([4]; DMXAA as vascular disrupting agent with nanoparticles): ~18 mg/kg | ineffective dose (current teaching) [5]: less than 20 mg/kg | useful dose (current teaching) [5]: 27.5 mg/kg | patient survival [6]: lack of patient gain in survival

CC[N+](C)(CC)CCC[n+]1c(-c2ccccc2)c2cc(N)ccc2c2ccc(N)cc21 [propidium, propidium iodide]
targeting of necroses / free DNA when included in a nanoparticle [2]: failed | retention with albumin on 50 kD Amicon centrifugal filters (stable complex) [3]: came through in the filtrate

CC(=O)O[C@H]1C(=O)[C@@]2(C)[C@H]([C@H](OC(=O)c3ccccc3)[C@]3(O)C[C@H](OC(=O)[C@H](O)[C@@H](NC(=O)c4ccccc4)c4ccccc4)C(C)=C1C3(C)C)[C@]1(OC(C)=O)CO[C@@H]1C[C@@H]2O [paclitaxel]
tolerability (mouse, in vivo, 90 mg/kg): well-tolerated | multiple of the maximum tolerated dose that can be safely administered (using the disclosed method): ~4 times | treatment result ([4]; 60-90 mg PTX/kg in the nanoparticle): excellent results | maximum tolerated dose (reported / published) [7]: 10 mg/kg | maximum tolerated dose (reported / published) ([7]; listed as PTX): 25 mg/kg
